Experimental findings from US20210251981A1, “SOLID FORMS OF BERBERINE URSODEOXYCHOLATE AND COMPOSITIONS AND METHODS THEREOF” (SHENZHEN HIGHTIDE BIOPHARMACEUTICAL, LTD., priority 2017, published 2021) are described below.

Each structure is given as a SMILES string. Where two headings read alike, the source gives them in different places.

Data set [1] is described as follows: Accelerated stability evaluation (XRPD and HPLC after storage). The data set is classed as physicochemical. The following applies: for Purity (Area %): HPLC; for Form: XRPD; for decrease of HPLC purity: HPLC-DAD, under all three conditions. The text has this:
(§1) XRPD patterns were collected on a PANalytical X-ray powder diffractometer fitted with an automatic sample changer, a theta-theta goniometer, automatic beam divergence slit and a PSD Vantec-1 detector. The X-ray tube voltage and amperage were set to 45 kV and 40 mA respectively. The diffractometer was aligned and a calibration check performed using a corundum reference material on the day of data collection. Data were collected and analyzed by the software Data Viewer.
(§2) Agilent 1260/1100 HPLC was utilized and detailed chromatographic conditions for purity and solubility measurement are listed in Table 5.
To evaluate the physical and chemical stability of Form A of BBR-UDCA and Form D of BBR-UDCA, samples were stored at 80° C. (sealed) for 24 hours, 25° C./60% RH (open) and 40° C./75% RH (open) for one week. […] The physical stability of Form A was better than Form D based on the 1-week stability results at 25° C./60% RH (open) and 40° C./75% RH (open).

Data set [2] can be described thus: Hygroscopicity evaluation by Dynamic Vapor Sorption (DVS). The data set is classed as physicochemical. The following applies: for water uptake: DVS. How it is done: DVS was measured via a SMS (Surface Measurement Systems) DVS Intrinsic.
Dynamic Vapor Sorption (DVS) isotherm plot of Form A of BBR-UDCA was collected at 25° C. with the various humidity, 60% RH-95% RH-0% RH-95% RH (60% RH was the ambient humidity). As the DVS plot shown, a step-like weight loss was observed between 10% RH and 20% RH.
To investigate the hygroscopicity of Form D of BBR-UDCA, DVS isotherm plot of Form D was collected at 25° C. between 0 and 95% RH.

Data set [3] in a line: Equilibrium aqueous solubility. The data set is classed as physicochemical. How it is done:
as §2
About 5 mg of each crystal type of solid (Form A of BBR-UDCA and Form D of BBR-UDCA, respectively) was weighed in separate 3-mL bottle, suspended into 1 mL of water, slurried (1000 rpm) at RT for 24 hours, and then centrifuged at 10000 rpm for 3 minutes. The resulting residual solids were characterized by XRPD and supernatant was measured by HPLC-DAD/ELSD. Due to the poor UV absorption of UDCA, DAD was used as the detector only for BBR and ELSD was used for both BBR and UDCA. […] The reason of the deviation from 1:1 may be that after HTD 1801 dissolving in water, a small amount of disproportionation occurred and it was hardly detected by XRPD due to its limited amount.

Data set [4] is described as follows: 1-Month stability evaluation (XRPD and HPLC after storage). The following applies: for Purity (Area %): HPLC; for Crystal Form: XRPD. It counts as physicochemical.
Description: as §1, §2
Samples of Form A of BBR-UDCA, Form D of BBR-UDCA and BBR-UDCA (mixed crystals without quality control on crystal forms) were stored 25° C./60% RH (sealed) and 40° C./75% RH (sealed) for one month.

The conditions of data set [5]: air exposure.
[6] abbreviates: 1 week, 25° C./60% RH (open), * = degree of crystallinity decreased.
Setting [7] is: 1 week, 40° C./75% RH (open), * = degree of crystallinity decreased.
[8] abbreviates: water, RT, 24 hours, ELSD as detector.
Setting [9] is: 1 Month, 25° C./60% RH (sealed).
The mark [10] stands for this setting: 1 Month, 40° C./75% RH (sealed).

As to `COc1ccc2cc3[n+](cc2c1OC)CCc1cc2c(cc1-3)OCO2.C[C@H](CCC(=O)[O-])[C@H]1CC[C@H]2[C@@H]3[C@@H](O)C[C@@H]4C[C@H](O)CC[C@]4(C)[C@H]3CC[C@]12C` [Form A, berberine ursodeoxycholate], the “Purity/Initial purity (%)” value in data set [1] (1 week, 25° C./60% RH (open)) amounted to 99.9%; in data set [1] (1 week, 40° C./75% RH (open)), 99.8%; in data set [1] (24 hours, 80° C. (sealed)) it was 99.8%; in data set [4] (setting [9]), 99.8%; in data set [4] (setting [10]) it was 99.9%. Moreover, the “Purity (Area %)” value in data set [1] (1 week, 25° C./60% RH (open)) came to 99.4 Area %; in data set [1] (1 week, 40° C./75% RH (open)), 99.4 Area %; in data set [1] (24 hours, 80° C. (sealed)), 99.3 Area %; in data set [1] (Initial), 99.5 Area %; in data set [4] (setting [9]), 99.3 Area %; in data set [4] (setting [10]), 99.4 Area %. For the same compound, in data set [4] (Initial), the “Purity (Area %)” value came out at 99.5 Area %. Besides, the Form entry is “Form A” in data set [1] (setting [6]); “Form A” in data set [1] (setting [7]); “Form A” in data set [1] (24 hours, 80° C. (sealed)). Also, in data set [1], the “decrease of HPLC purity” value is listed as “no HPLC purity decrease”. Also, the “crystal-form change after DVS (XRPD)” value in data set [2] (25° C., 60% RH-95% RH-0% RH-95% RH) is reported as “no crystal-form change”. In data set [2] (25° C./80% RH), this compound returned a water uptake of 9.9%. Further, in data set [3] (water, RT, 24 hours slurry, XRPD, listed as Type A), the “Form of residual solid” value is “Type A”. The “Solubility of BBR” value in data set [3] (water, RT, 24 hours, DAD as detector) is on record as 0.35 mg/mL; in data set [3] (setting [8]), 0.33 mg/mL. Further, in data set [3] (setting [8]), the “Solubility of UDCA” value turned out to be 0.42 mg/mL. For the same compound, the “Crystal Form” value in data set [4] (setting [9]) and in data set [4] (setting [10]) was “Form A” in each case.
On to `COc1ccc2cc3[n+](cc2c1OC)CCc1cc2c(cc1-3)OCO2.C[C@H](CCC(=O)[O-])[C@H]1CC[C@H]2[C@@H]3[C@@H](O)C[C@@H]4C[C@H](O)CC[C@]4(C)[C@H]3CC[C@]12C` [Form J, berberine ursodeoxycholate], for which the form conversion result in data set [5] is reported as “converts to Form A”.
Consider `COc1ccc2cc3[n+](cc2c1OC)CCc1cc2c(cc1-3)OCO2.C[C@H](CCC(=O)[O-])[C@H]1CC[C@H]2[C@@H]3[C@@H](O)C[C@@H]4C[C@H](O)CC[C@]4(C)[C@H]3CC[C@]12C` [Mixed crystal, berberine ursodeoxycholate], for which, in data set [4] (setting [9]), the “Purity/Initial purity (%)” value came to 91.7%, the “Purity (Area %)” value is reported as 90.8 Area % and the “Crystal Form” value is on record as “Mixed”. In data set [4] (setting [10]), the “Purity/Initial purity (%)” value is 89.6%, the “Purity (Area %)” value turned out to be 88.7 Area % and the “Crystal Form” value is “Mixed”. The “Purity (Area %)” value in data set [4] (Initial) is 99.0 Area %.
As to `COc1ccc2cc3[n+](cc2c1OC)CCc1cc2c(cc1-3)OCO2.C[C@H](CCC(=O)[O-])[C@H]1CC[C@H]2[C@@H]3[C@@H](O)C[C@@H]4C[C@H](O)CC[C@]4(C)[C@H]3CC[C@]12C` [Form D, berberine ursodeoxycholate], the “Purity/Initial purity (%)” value is reported as 99.3% in data set [1] (1 week, 25° C./60% RH (open)); 98.3% in data set [1] (1 week, 40° C./75% RH (open)); 99.5% in data set [1] (24 hours, 80° C. (sealed)); 97.6% in data set [4] (setting [9]); 95.1% in data set [4] (setting [10]). Besides, the “Purity (Area %)” value in data set [1] (1 week, 25° C./60% RH (open)) stood at 98.9 Area %; in data set [1] (1 week, 40° C./75% RH (open)), 97.9 Area %; in data set [1] (24 hours, 80° C. (sealed)) it was 99.0 Area %; in data set [1] (Initial), 99.6 Area %; in data set [4] (setting [9]), 97.2 Area %; in data set [4] (setting [10]), 94.7 Area %. Besides, the “Purity (Area %)” value in data set [4] (Initial) worked out at 99.6 Area %. Also, the Form result in data set [1] (setting [6]) is “Form D*”; in data set [1] (setting [7]) it was “Form D*”; in data set [1] (24 hours, 80° C. (sealed)), “Form D”. Further, in data set [1], the “decrease of HPLC purity” value is 0.5-1.7 area %. The “crystal-form change (XRPD)” value in data set [1] (all three conditions: 80° C. sealed 24 hours, 25° C./60% RH open and 40° C./75% RH open one week) is listed as “no crystal-form change”; in data set [4] (25° C./60% RH (sealed) and 40° C./75% RH (sealed), one month), “No crystal-form change”. Besides, the “behaviour in high humidity (DVS)” value in data set [2] (25° C., over 90% RH) is “deliquesced in high humidity”. Besides, the water uptake in data set [2] (25° C., 95% RH) is 24.5%; in data set [2] (25° C./80% RH), 4.1%. Besides, in data set [3], the “Solubility of UDCA” value worked out at 0.52 mg/mL. Besides, the “molar ratio (BBR:UDCA)” value in data set [3] is given as 0.93:1. In addition, the “Crystal Form” value in data set [4] (setting [9]) and in data set [4] (setting [10]) was “Form D” in each case.
